The text below walks through data of patent US20060154243A1 (priority 2003, published 2006).

Experiment [1] deals with serum 1a (individual 1, early serum). It counts as binding, human.
Experiment [2] relates to serum 1b (individual 1, late serum). It counts as binding, human.
The next experiment has as its system serum 2 (individual 2). It counts as binding, human.
The subject of another experiment is serum 6 (individual 6). It counts as binding, human.
A further experiment relates to serum 37 (individual 37). It counts as binding, human.
The test system of the next experiment is serum 62 (individual 62). It counts as binding, human.
The subject of another experiment is serum London. It counts as binding, human.
The next experiment concerns serum SARS-yellow. It counts as binding, human.
The test system of the next experiment is serum SARS-green. It counts as binding, human.
For experiment [3], the system named is control serum LUMC (pooled serum of ten healthy hospital workers). It counts as binding, human.
Experiment [4] deals with control serum Blood-bank (commercial negative donor pooled serum). It counts as binding, human.
For experiment [5], the system named is rabbit serum obtained by immunizing with SARS-CoV strain Frankfurt 1. It counts as binding.
For experiment [6], the system named is sera SARS-green, SARS-yellow, 1a, 1b, 2, 6, 37, 62 and London. It counts as binding, human.

In the case of EAAVKPLLAPHHVVA, in [1], the “Binding of serum 1a to linear peptides of Orf14 of SARS-CoV TOR2” value (“Binding of serum 1a” for short) came out at 0.6. The “Binding of serum 1b to linear peptides of Orf14 of SARS-CoV TOR2” value (“Binding of serum 1b” below) in [2] is listed as 0.5. In addition, the “Binding of serum 2 to linear peptides of Orf14 of SARS-CoV TOR2” value in the experiment on serum 2 (individual 2) came out at 0.7. Moreover, the “Binding of serum 6 to linear peptides of Orf14 of SARS-CoV TOR2” value with serum 6 (individual 6) is recorded as 0.5. The “Binding of serum 37 to linear peptides of Orf14 of SARS-CoV TOR2” value in the experiment with serum 37 (individual 37) stood at 0.7. Moreover, in the experiment with serum 62 (individual 62), the “Binding of serum 62 to linear peptides of Orf14 of SARS-CoV TOR2” value came to 0.6. Moreover, the “Binding of serum London to linear peptides of Orf14 of SARS-CoV TOR2” value (shortened to “Binding of serum London”) with serum London is 0.8. The “Binding of serum SARS-yellow to linear peptides of Orf14 of SARS-CoV TOR2” value (“Binding of serum SARS-yellow” for short) in the experiment with serum SARS-yellow was found to be 0.6. For the same sequence, the “Binding of serum SARS-green to linear peptides of Orf14 of SARS-CoV TOR2” value (“Binding of serum SARS-green” for short) in the experiment with serum SARS-green stood at 0.6. In experiment [3], the “Control serum LUMC linear peptides” value is 0.8 and the “Control serum LUMC looped peptides” value came to 0.7. For the same sequence, in experiment [4], the “Control Serum Blood-Bank Looped peptides” value stood at 0.8 and the “Control serum Blood-bank linear peptides” value came out at 0.6. Further, the “Recognition by the rabbit serum” value in experiment [5] is reported as “recognized by the rabbit serum”.

As to LPPCYNFLKEQHCQK, the “Binding of serum 1a” value in experiment [1] turned out to be 0.3. Besides, the “Binding of serum 1b” value in experiment [2] is 0.2. Also, in the experiment with serum 2 (individual 2), the “Binding of serum 2 to linear peptides of Orf14 of SARS-CoV TOR2” value worked out at 0.2. Also, the “Binding of serum 6 to linear peptides of Orf14 of SARS-CoV TOR2” value in the experiment on serum 6 (individual 6) worked out at 0.2. The “Binding of serum 37 to linear peptides of Orf14 of SARS-CoV TOR2” value with serum 37 (individual 37) is on record as 0.3. Moreover, in the experiment with serum 62 (individual 62), the “Binding of serum 62 to linear peptides of Orf14 of SARS-CoV TOR2” value stood at 0.2. Also, the “Binding of serum London” value with serum London was 0.1. The “Binding of serum SARS-yellow” value in the experiment on serum SARS-yellow stood at 0.0. Besides, the “Binding of serum SARS-green” value in the experiment on serum SARS-green worked out at 0.0. In [3], the “Control serum LUMC linear peptides” value came to 0.2 and the “Control serum LUMC looped peptides” value came out at 0.6. Also, in experiment [4], the “Control Serum Blood-Bank Looped peptides” value came out at 0.9 and the “Control serum Blood-bank linear peptides” value is 0.2. In experiment [6], the “Recognition of the peptide by sera of individuals infected by SARS-CoV, form recognized” value (“Recognition of the peptide” below) is “recognized in looped form”.

In the case of FLKEQHCQKASTQRE, in [1], the “Binding of serum 1a” value is recorded as 0.3. Moreover, in [2], the “Binding of serum 1b” value came to 0.3. In the experiment on serum 2 (individual 2), the “Binding of serum 2 to linear peptides of Orf14 of SARS-CoV TOR2” value came out at 0.3. In addition, in the experiment with serum 6 (individual 6), the “Binding of serum 6 to linear peptides of Orf14 of SARS-CoV TOR2” value came to 0.2. Moreover, the “Binding of serum 37 to linear peptides of Orf14 of SARS-CoV TOR2” value in the experiment with serum 37 (individual 37) turned out to be 0.4. Further, in the experiment with serum 62 (individual 62), the “Binding of serum 62 to linear peptides of Orf14 of SARS-CoV TOR2” value is reported as 0.3. In the experiment with serum London, the “Binding of serum London” value is 0.3. Besides, the “Binding of serum SARS-yellow” value in the experiment with serum SARS-yellow is given as 0.2. Moreover, the “Binding of serum SARS-green” value in the experiment with serum SARS-green was determined as 0.1. In [3], the “Control serum LUMC linear peptides” value turned out to be 0.3 and the “Control serum LUMC looped peptides” value came out at 1.1. For the same sequence, in experiment [4], the “Control Serum Blood-Bank Looped peptides” value amounted to 0.9 and the “Control serum Blood-bank linear peptides” value is recorded as 0.4. Moreover, in experiment [6], the “Recognition of the peptide” value is “recognized in looped form”.

For the sequence VKPLLAPHHVVAVIQ, in experiment [1], the “Binding of serum 1a” value is recorded as 0.6. Further, the “Binding of serum 1b” value in experiment [2] was determined as 0.5. Moreover, the “Binding of serum 2 to linear peptides of Orf14 of SARS-CoV TOR2” value with serum 2 (individual 2) is listed as 0.6. The “Binding of serum 6 to linear peptides of Orf14 of SARS-CoV TOR2” value with serum 6 (individual 6) turned out to be 0.5. For the same sequence, the “Binding of serum 37 to linear peptides of Orf14 of SARS-CoV TOR2” value in the experiment with serum 37 (individual 37) is 0.7. Further, in the experiment with serum 62 (individual 62), the “Binding of serum 62 to linear peptides of Orf14 of SARS-CoV TOR2” value is recorded as 0.5. Moreover, the “Binding of serum London” value in the experiment on serum London was 0.6. Further, in the experiment on serum SARS-yellow, the “Binding of serum SARS-yellow” value is 0.4. Besides, the “Binding of serum SARS-green” value in the experiment on serum SARS-green is 0.3. Also, in experiment [3], the “Control serum LUMC linear peptides” value was 0.6 and the “Control serum LUMC looped peptides” value amounted to 0.6. In [4], the “Control Serum Blood-Bank Looped peptides” value turned out to be 0.7 and the “Control serum Blood-bank linear peptides” value is given as 0.7. The “Recognition by the rabbit serum” value in experiment [5] is “recognized by the rabbit serum”.

For the sequence HCQKASTQREAEAAV, the “Binding of serum 1a” value in experiment [1] worked out at 0.6. The “Binding of serum 1b” value in experiment [2] was 0.5. In addition, the “Binding of serum 2 to linear peptides of Orf14 of SARS-CoV TOR2” value in the experiment with serum 2 (individual 2) is 0.9. In addition, the “Binding of serum 6 to linear peptides of Orf14 of SARS-CoV TOR2” value in the experiment with serum 6 (individual 6) is on record as 0.6. Also, the “Binding of serum 37 to linear peptides of Orf14 of SARS-CoV TOR2” value in the experiment with serum 37 (individual 37) came to 0.7. Also, the “Binding of serum 62 to linear peptides of Orf14 of SARS-CoV TOR2” value in the experiment on serum 62 (individual 62) stood at 0.7. Moreover, the “Binding of serum London” value with serum London is given as 0.7. For the same sequence, the “Binding of serum SARS-yellow” value in the experiment with serum SARS-yellow worked out at 0.6. Besides, in the experiment on serum SARS-green, the “Binding of serum SARS-green” value came out at 0.4. Further, in [3], the “Control serum LUMC linear peptides” value is 0.6 and the “Control serum LUMC looped peptides” value is 0.8. In addition, in experiment [4], the “Control Serum Blood-Bank Looped peptides” value is on record as 0.9 and the “Control serum Blood-bank linear peptides” value is 0.5. For the same sequence, in [6], the “Recognition of the peptide” value is given as “recognized in looped form”.

With AAVKPLLAPHHVVAV, in experiment [1], the “Binding of serum 1a” value was determined as 0.8. The “Binding of serum 1b” value in experiment [2] is listed as 0.6. Moreover, in the experiment with serum 2 (individual 2), the “Binding of serum 2 to linear peptides of Orf14 of SARS-CoV TOR2” value is 1.0. The “Binding of serum 6 to linear peptides of Orf14 of SARS-CoV TOR2” value in the experiment with serum 6 (individual 6) stood at 0.7. In the experiment with serum 37 (individual 37), the “Binding of serum 37 to linear peptides of Orf14 of SARS-CoV TOR2” value worked out at 0.9. For the same sequence, the “Binding of serum 62 to linear peptides of Orf14 of SARS-CoV TOR2” value in the experiment with serum 62 (individual 62) is on record as 0.9. Besides, the “Binding of serum London” value in the experiment with serum London is recorded as 0.8. Further, the “Binding of serum SARS-yellow” value in the experiment with serum SARS-yellow turned out to be 0.8. For the same sequence, the “Binding of serum SARS-green” value in the experiment with serum SARS-green is recorded as 0.6. For the same sequence, in [3], the “Control serum LUMC linear peptides” value worked out at 1.0 and the “Control serum LUMC looped peptides” value worked out at 0.7. In addition, in experiment [4], the “Control Serum Blood-Bank Looped peptides” value is listed as 0.6 and the “Control serum Blood-bank linear peptides” value was 1.0. Also, in experiment [5], the “Recognition by the rabbit serum” value was “recognized by the rabbit serum”.

Turning to AVKPLLAPHHVVAVI, the “Binding of serum 1a” value in [1] is listed as 0.6. Also, in experiment [2], the “Binding of serum 1b” value was found to be 0.4. Also, the “Binding of serum 2 to linear peptides of Orf14 of SARS-CoV TOR2” value in the experiment on serum 2 (individual 2) is given as 0.5. In addition, the “Binding of serum 6 to linear peptides of Orf14 of SARS-CoV TOR2” value in the experiment with serum 6 (individual 6) is 0.5. The “Binding of serum 37 to linear peptides of Orf14 of SARS-CoV TOR2” value in the experiment with serum 37 (individual 37) turned out to be 0.7. Moreover, the “Binding of serum 62 to linear peptides of Orf14 of SARS-CoV TOR2” value with serum 62 (individual 62) came out at 0.5. For the same sequence, the “Binding of serum London” value with serum London amounted to 0.5. Also, in the experiment with serum SARS-yellow, the “Binding of serum SARS-yellow” value is 0.6. Moreover, the “Binding of serum SARS-green” value in the experiment with serum SARS-green came out at 0.3. In experiment [3], the “Control serum LUMC linear peptides” value amounted to 0.6 and the “Control serum LUMC looped peptides” value is recorded as 0.7. Further, in experiment [4], the “Control Serum Blood-Bank Looped peptides” value is reported as 0.7 and the “Control serum Blood-bank linear peptides” value was 0.7. In addition, the “Recognition by the rabbit serum” value in experiment [5] is recorded as “recognized by the rabbit serum”.

As for EAEAAVKPLLAPHHV, the “Binding of serum 1a” value in [1] was 0.5. Also, the “Binding of serum 1b” value in experiment [2] was 0.3. Besides, the “Binding of serum 2 to linear peptides of Orf14 of SARS-CoV TOR2” value with serum 2 (individual 2) worked out at 0.7. In addition, the “Binding of serum 6 to linear peptides of Orf14 of SARS-CoV TOR2” value in the experiment with serum 6 (individual 6) was 0.4. Moreover, the “Binding of serum 37 to linear peptides of Orf14 of SARS-CoV TOR2” value with serum 37 (individual 37) was 0.5. Further, the “Binding of serum 62 to linear peptides of Orf14 of SARS-CoV TOR2” value in the experiment with serum 62 (individual 62) was determined as 0.4. For the same sequence, the “Binding of serum London” value with serum London is 0.6. Besides, the “Binding of serum SARS-yellow” value with serum SARS-yellow worked out at 0.2. In addition, the “Binding of serum SARS-green” value in the experiment on serum SARS-green was found to be 0.4. In [3], the “Control serum LUMC linear peptides” value is recorded as 0.4 and the “Control serum LUMC looped peptides” value is on record as 0.6. Further, in experiment [4], the “Control Serum Blood-Bank Looped peptides” value was 0.7 and the “Control serum Blood-bank linear peptides” value was determined as 0.4.
